Data published in patent US8349828B2, “Azatricyclic antibiotic compounds” (Actelion Pharmaceuticals Ltd., priority 2008, dated 2013).
In brackets after ≈: the same amount, converted by molar mass.

System: M. catarrhalis A894
Experiment: MIC determination by microdilution in cation-adjusted Mueller-Hinton Broth (CLSI M7-A7)
Type: cell-based
Settings: for MIC: Moraxella catarrhalis, A894, microdilution method
Experimental: Minimal inhibitory concentrations (MICs, in mg/l) were determined in cation-adjusted Mueller-Hinton Broth by a microdilution method following the description given in “Methods for Dilution Antimicrobial Susceptibility Tests for Bacteria that Grow Aerobically”, Approved standard, 7th ed., Clinical and Laboratory Standards Institute (CLSI) Document M7-A7, Wayne, Pa., USA, 2006. All Example compounds were tested against several Gram-positive and Gram-negative bacteria.

Row | Structure (SMILES) | MIC [µg/mL] | MIC M. catarrhalis A894 (microdilution method)
1 | O=C1CSc2ccc(N3C[C@@H](CNCC4Cc5c(F)ccc6ccc(=O)n(c56)C4)OC3=O)cc2N1 (mixture of isomers) [Example 3, (6RS)-8-fluoro-6-({[(R)-2-oxo-3-(3-oxo-3,4-dihydro-2H-benzo[1,4]thiazin-6-yl)-oxazolidin-5-ylmethyl]-amino}-methyl)-6,7-dihydro-5H-pyrido[3,2,1-ij]quinolin-3-one] | ≤ 0.063 | –
2 | O=C1CSc2ccc(N3C[C@@H](CCNC[C@@H]4Cc5c(F)ccc6ccc(=O)n4c56)OC3=O)cc2N1 [Example 17, (S)-9-fluoro-2-({2-[(R)-2-oxo-3-(3-oxo-3,4-dihydro-2H-benzo[1,4]thiazin-6-yl)-oxazolidin-5-yl]-ethylamino}-methyl)-1,2-dihydro-1.5 pyrrolo[3,2,1-ij]quinolin-4-one] | – | ≦0.063 mg/l
3 | O=C1CSc2ccc(N3C[C@@H](CNCC4Cn5c(=O)ccc6ccc(F)c(c65)O4)OC3=O)cc2N1 (mixture of isomers) [Example 12, (RS)-9-fluoro-2-({[(R)-2-oxo-3-(3-oxo-3,4-dihydro-2H-benzo[1,4]thiazin-6-yl)-oxazolidin-5-ylmethyl]-amino}-methyl)-2,3-dihydro-1-oxa-3a-aza-phenalen-4-one] | ≤ 0.063 | –
4 | O=C1O[C@H](CNCC2Cc3c(F)ccc4ccc(=O)n(c34)C2)CN1c1ccc2c(c1)OCCO2 (mixture of isomers) [Example 5, (6RS)-6-({[(R)-3-(2,3-dihydro-benzo[1,4]dioxin-6-yl)-2-oxo-oxazolidin-5-ylmethyl]-amino}-methyl)-8-fluoro-6,7-dihydro-5H-pyrido[3,2,1-ij]quinolin-3-one] | ≤ 0.063 | –
5 | O=C1CSc2ccc(N3C[C@@H](CNC[C@H]4Cc5c(F)ccc6ccc(=O)n4c56)OC3=O)cc2N1 [Example 6, (R)-9-fluoro-2-({[(R)-2-oxo-3-(3-oxo-3,4-dihydro-2H-benzo[1,4]thiazin-6-yl)-oxazolidin-5-ylmethyl]-amino}-methyl)-1,2-dihydro-pyrrolo[3,2,1-ij]quinolin-4-one] | ≤ 0.063 | –
6 | O=C1CSc2ccc(N3C[C@@H](CCN[C@@H]4Cc5c(F)ccc6ccc(=O)n(c56)C4)OC3=O)cc2N1 (racemic) [Example 7, (6RS)-8-fluoro-6-{2-[(RS)-2-oxo-3-(3-oxo-3,4-dihydro-2H-benzo[1,4]thiazin-6-yl)-oxazolidin-5-yl]-ethylamino}-6,7-dihydro-5H-pyrido[3,2,1-ij]quinolin-3-one] | ≤ 0.063 | –
7 | O=C1CSc2ccc(N3C[C@@H](CNCC4Cn5c(=O)ccc6nccc(c65)O4)OC3=O)cc2N1 (mixture of isomers) [Example 1, 2-(RS)-({[(R)-2-oxo-3-(3-oxo-3,4-dihydro-2H-benzo[1,4]thiazin-6-yl)-oxazolidin-5-ylmethyl]-amino}-methyl)-2,3-dihydro-1-oxa-3a,7-diaza-phenalen-4-one] | ≤ 0.063 | –
8 | O=C1COc2ccc(N3C[C@@H](CNCC4Cc5c(F)ccc6ccc(=O)n(c56)C4)OC3=O)cc2N1 (mixture of isomers) [Example 4, (6RS)-8-fluoro-6-({[(R)-2-oxo-3-(3-oxo-3,4-dihydro-2H-benzo[1,4]oxazin-6-yl)-oxazolidin-5-ylmethyl]-amino}-methyl)-6,7-dihydro-5H-pyrido[3,2,1-ij]quinolin-3-one] | ≤ 0.063 | –
9 | O=C1CSc2ccc(N3C[C@@H](CCNC[C@H]4Cc5c(F)ccc6ccc(=O)n4c56)OC3=O)cc2N1 [Example 18, (R)-9-fluoro-2-({2-[(R)-2-oxo-3-(3-oxo-3,4-dihydro-2H-benzo[1,4]thiazin-6-yl)-oxazolidin-5-yl]-ethylamino}-methyl)-1,2-dihydropyrrolo[3,2,1-ij]quinolin-4-one] | ≤ 0.063 | –
10 | O=C1CSc2ccc(N3C[C@@H](CNCC4Cc5c(F)cnc6ccc(=O)n(c56)C4)OC3=O)cc2N1 (mixture of isomers) [Example 13, (RS)-3-fluoro-5-({[(R)-2-oxo-3-(3-oxo-3,4-dihydro-2H-benzo[1,4]thiazin-6-yl)-oxazolidin-5-ylmethyl]-amino}-methyl)-5,6-dihydro-4H-1,6a-diaza-phenalen-7-one] | ≤ 0.063 | –
11 | O=C1COc2ccc(N3C[C@@H](CNCC4Cn5c(=O)ccc6nccc(c65)O4)OC3=O)cc2N1 (mixture of isomers) [Example 2, 2-(RS)-({[(R)-2-oxo-3-(3-oxo-3,4-dihydro-2H-benzo[1,4]oxazin-6-yl)-oxazolidin-5-ylmethyl]-amino}-methyl)-2,3-dihydro-1-oxa-3a,7-diaza-phenalen-4-one] | 0.5 | –
12 | O=C1CSc2ccc(N3C[C@@H](CCNCC4Cc5c(F)cnc6ccc(=O)n4c56)OC3=O)cc2N1 (mixture of isomers) [Example 15, (RS)-3-fluoro-5-({2-[(R)-2-oxo-3-(3-oxo-3,4-dihydro-2H-benzo[1,4]thiazin-6-yl)-oxazolidin-5-yl]-ethylamino}-methyl)-4,5-dihydropyrrolo[3,2,1-de][1,5]naphthyridin-7-one] | ≤ 0.063 | –
13 | O=C1CSc2ccc(N3CC(CCNC[C@H]4Cc5c(F)ccc6ccc(=O)n4c56)OC3=O)cc2N1 (mixture of isomers) [Example 10, (R)-9-fluoro-2-({2-[(RS)-2-oxo-3-(3-oxo-3,4-dihydro-2H-benzo[1,4]thiazin-6-yl)-oxazolidin-5-yl]-ethylamino}-methyl)-1,2-dihydropyrrolo[3,2,1-ij]quinolin-4-one] | ≤ 0.063 | –
14 | O=C1COc2ccc(N3C[C@@H](CNC[C@H]4Cc5c(F)ccc6ccc(=O)n4c56)OC3=O)cc2N1 [Example 8, (R)-9-fluoro-2-({[(R)-2-oxo-3-(3-oxo-3,4-dihydro-2H-benzo[1,4]oxazin-6-yl)-oxazolidin-5-ylmethyl]-amino}-methyl)-1,2-dihydro-pyrrolo[3,2,1-ij]quinolin-4-one] | 0.125 (≈ 0.269 µM) | –
15 | O=C1COc2ccc(N3C[C@@H](CNC[C@@H]4Cc5c(F)ccc6ccc(=O)n4c56)OC3=O)cc2N1 [Example 16, (S)-9-fluoro-2-({[(R)-2-oxo-3-(3-oxo-3,4-dihydro-2H-benzo[1,4]oxazin-6-yl)-oxazolidin-5-ylmethyl]-amino}-methyl)-1,2-dihydro-pyrrolo[3,2,1-ij]quinolin-4-one] | 0.125 (≈ 0.269 µM) | –

The remaining lines, values ahead:

Row | MIC [µg/mL] | MIC M. catarrhalis A894 (microdilution method) | Structure (SMILES)
16 | 2 | – | O=C1CSc2ccc(N3C[C@@H](CCNCC4Cc5ccnc6ccc(=O)n4c56)OC3=O)cc2N1 (mixture of isomers) [Example 24, (RS)-5-({2-[(R)-2-oxo-3-(3-oxo-3,4-dihydro-2H-benzo[1,4]thiazin-6-yl)-oxazolidin-5-yl]-ethylamino}-methyl)-4,5-dihydro-pyrrolo[3,2,1-de][1,5]naphthyridin-7-one]
17 | 4 | – | O=C1COc2ccc(N3C[C@H](CCNCC4Cc5ccnc6ccc(=O)n4c56)OC3=O)cc2N1 (mixture of isomers) [Example 25, (RS)-5-({2-[(S)-2-oxo-3-(3-oxo-3,4-dihydro-2H-benzo[1,4]oxazin-6-yl)-oxazolidin-5-yl]-ethylamino}-methyl)-4,5-dihydro-pyrrolo[3,2,1-de][1,5]naphthyridin-7-one]
18 | ≤ 0.063 | – | O=C1CSc2ccc(N3C[C@@H](CCNCC4Cc5cccc6ccc(=O)n4c56)OC3=O)cc2N1 (mixture of isomers) [Example 26, (RS)-2-({2-[(R)-2-oxo-3-(3-oxo-3,4-dihydro-2H-benzo[1,4]thiazin-6-yl)-oxazolidin-5-yl]-ethylamino}-methyl)-1,2-dihydro-pyrrolo[3,2,1-ij]quinolin-4-one]
19 | ≤ 0.063 | – | O=C1CSc2ccc(N3C[C@@H](CNCC4Cc5cccc6ccc(=O)n4c56)OC3=O)cc2N1 (mixture of isomers) [Example 28, (RS)-2-({[(R)-2-oxo-3-(3-oxo-3,4-dihydro-2H-benzo[1,4]thiazin-6-yl)-oxazolidin-5-ylmethyl]-amino}-methyl)-1,2-dihydro-pyrrolo[3,2,1-ij]quinolin-4-one]
20 | ≤ 0.063 | – | O=C1CSc2ccc(N3C[C@H](CCNC[C@H]4Cc5c(F)ccc6ccc(=O)n4c56)OC3=O)cc2N1 [Example 20, (R)-9-fluoro-2-({2-[(S)-2-oxo-3-(3-oxo-3,4-dihydro-2H-benzo[1,4]thiazin-6-yl)-oxazolidin-5-yl]-ethylamino}-methyl)-1,2-dihydropyrrolo[3,2,1-ij]quinolin-4-one]
21 | ≤ 0.063 | – | O=C1COc2ccc(N3C[C@H](CCNCC4Cc5c(F)ccc6ccc(=O)n4c56)OC3=O)cc2N1 (mixture of isomers) [Example 22, (RS)-9-fluoro-2-({2-[(S)-2-oxo-3-(3-oxo-3,4-dihydro-2H-benzo[1,4]oxazin-6-yl)-oxazolidin-5-yl]-ethylamino}-methyl)-1,2-dihydropyrrolo[3,2,1-ij]quinolin-4-one]
22 | 0.125 (≈ 0.27 µM) | – | O=C1CSc2ccc(N3C[C@@H](CNC[C@@H]4Cc5cccc6ncc(=O)n4c56)OC3=O)cc2N1 [Example 30, (S)-5-({[(R)-2-oxo-3-(3-oxo-3,4-dihydro-2H-benzo[1,4]thiazin-6-yl)oxazolidin-5-ylmethyl]-amino}-methyl)-5,6-dihydro-pyrrolo[1,2,3-de]quinoxalin-3-one]
23 | ≤ 0.063 | – | O=C1COc2ccc(N3C[C@H](CCNCC4Cc5cccc6ncc(=O)n4c56)OC3=O)nc2N1 (mixture of isomers) [Example 31, (RS)-5-({2-[(S)-2-oxo-3-(3-oxo-3,4-dihydro-2H-pyrido[3,2-b][1,4]oxazin-6-yl)-oxazolidin-5-yl]-ethylamino}-methyl)-5,6-dihydropyrrolo[1,2,3-de]quinoxalin-3-one]
24 | ≤ 0.063 | – | O=C1COc2ccc(N3C[C@@H](CCNCC4Cc5c(F)ccc6ccc(=O)n4c56)OC3=O)cc2N1 (mixture of isomers) [Example 21, (RS)-9-fluoro-2-({2-[(R)-2-oxo-3-(3-oxo-3,4-dihydro-2H-benzo[1,4]oxazin-6-yl)-oxazolidin-5-yl]-ethylamino}-methyl)-1,2-dihydropyrrolo[3,2,1-ij]quinolin-4-one]
25 | ≤ 0.063 | – | O=C1COc2ccc(N3C[C@@H](CCNCC4Cc5c(F)ccc6c5N4C(=O)CC6)OC3=O)cc2N1 (mixture of isomers) [Example 23, (RS)-9-fluoro-2-({2-[(R)-2-oxo-3-(3-oxo-3,4-dihydro-2H-benzo[1,4]oxazin-6-yl)-oxazolidin-5-yl]-ethylamino}-methyl)-1,2,5,6-tetrahydropyrrolo[3,2,1-ij]quinolin-4-one]
